Reference: the NIST ThermoML archive (doi:10.1016/j.fluid.2014.01.033)
± gives the expanded uncertainty stated by the source.

Legend:
[1] = refractive index (Na D-line) (dimensionless); conditions: 298.15 K; 101.33 kPa; Liquid; Standard Abbe refractometry
[2] = 298.15 K; 101.33 kPa; Liquid; Vibrating tube method

| refractive index [1] | mass density [2] | SMILES |
| --- | --- | --- |
| 1.3725 ± 0.0007 | 655.12 ± 0.21 kg/m3 | CCCCCC [hexane] |
| 1.3413 ± 0.0007 | 776.55 ± 0.19 kg/m3 | CC#N [acetonitrile] |
| 1.4978 ± 0.0007 | 873.79 ± 0.17 kg/m3 | c1ccccc1 [benzene] |
